Experiment [1] deals with HCV replicon in HUH-7 cells. Nature of the experiment: HCV replicon FRET assay. Particulars: Hepatitis C virus. The experiment is classed as cell-based, HCV strain 1b. The source says:
An HCV replicon whole cell system was established as described by Lohmann V, Korner F, Koch J, Herian U, Theilmann L, Bartenschlager R., Science 285(5424):110-3 (1999). This system enabled us to evaluate the effects of our HCV Protease compounds on HCV RNA replication. Briefly, using the HCV strain 1b sequence described in the Lohmann paper (Assession number: AJ238799), an HCV cDNA was synthesized by Operon Technologies, Inc. (Alameda, Calif.), and the full-length replicon was then assembled in plasmid pGem9zf(+) (Promega, Madison, Wis.) using standard molecular biology techniques. The replicon consists of (i) the HCV 5′ UTR fused to the first 12 amino acids of the capsid protein, (ii) the neomycin phosphotransferase gene (neo), (iii) the IRES from encephalomyocarditis virus (EMCV), and (iv) HCV NS3 to NS5B genes and the HCV 3′ UTR. Plasmid DNAs were linearized with ScaI and RNA transcripts were synthesized in vitro using the T7 MegaScript transcription kit (Ambion, Austin, Tex.) according to manufacturer's directions. In vitro transcripts of the cDNA were transfected into the human hepatoma cell line, HUH-7. […] Resulting cell lines were characterized for positive and negative strand RNA production and protein production over time.
The HCV replicon FRET assay was developed to monitor the inhibitory effects of compounds described in the disclosure on HCV viral replication. HUH-7 cells, constitutively expressing the HCV replicon, were grown in Dulbecco's Modified Eagle Media (DMEM) (Gibco-BRL) containing 10% Fetal calf serum (FCS) (Sigma) and 1 mg/ml G418 (Gibco-BRL). Cells were seeded the night before (1.5×10^4 cells/well) in 96-well tissue-culture sterile plates. Compound and no compound controls were prepared in DMEM containing 4% FCS, 1:100 Penicillin/Streptomysin (Gibco-BRL), 1:100 L-glutamine and 5% DMSO in the dilution plate (0.5% DMSO final concentration in the assay). Compound/DMSO mixes were added to the cells and incubated for 4 days at 37° C. After 4 days, cells were first assessed for cytotoxicity using alamar Blue (Trek Diagnotstic Systems) for a CC50 reading. The toxicity of compound (CC50) was determined by adding 1/10th volume of alamar Blue to the media incubating the cells. After 4 h, the fluorescence signal from each well was read, with an excitation wavelength at 530 nm and an emission wavelength of 580 nm, using the Cytofluor Series 4000 (Perspective Biosystems). Plates were then rinsed thoroughly with Phosphate-Buffered Saline (PBS) (3 times 150 μl). The cells were lysed with 25 μl of a lysis assay reagent containing an HCV protease substrate (5× cell Luciferase cell culture lysis reagent (Promega #E153A) diluted to 1× with distilled water, NaCl added to 150 mM final, the FRET peptide substrate (as described for the enzyme assay above) diluted to 10 μM final from a 2 mM stock in 100% DMSO. […]. The plate was then placed into the Cytofluor 4000 instrument which had been set to 340 nm excitation/490 nm emission, automatic mode for 21 cycles and the plate read in a kinetic mode. EC50 determinations were carried out as described for the IC50 determinations.
A general note: In antiviral work, replicon cells carry a viral genome segment that copies itself.

The next experiment deals with T1, human liver cathepsin B (Homo sapiens, UniProt P07858).
T1 construct: purchased Sigma; host or cells: human liver
The experiment is described as follows: Specificity assay, cathepsin B. The experiment is classed as biochemical. Conditions: 2 h enzyme-inhibitor pre-incubation; read-out: Cathepsin B activity in the specificity assays (IC50). The procedure:
The specificities of compounds of the present disclosure were determined against a variety of serine proteases: human neutrophil elastase (HNE), porcine pancreatic elastase (PPE) and human pancreatic chymotrypsin and one cysteine protease: human liver cathepsin B. In all cases a 96-well plate format protocol using calorimetric p-nitroaniline (pNA) substrate specific for each enzyme was used as described previously (PCT Patent Application No. WO 00/09543) with some modifications to the serine protease assays. All enzymes were purchased from Sigma while the substrates were from Bachem.
Each assay included a 2 h enzyme-inhibitor pre-incubation at room temperature followed by addition of substrate and hydrolysis to 30% conversion as measured on a Spectramax Pro microplate reader. Compound concentrations varied from 100 to 0.4 μM depending on their potency. […]
The percentage of inhibition was calculated using the formula: [1−((UVinh−UVblank)/(UVctl−UVblank))]×100 […]

Like-named read-outs stand apart in the source and are kept apart here.

Broadly, the EC50 is the concentration giving half of the maximal effect. By IC50 is commonly meant the point on the concentration scale where inhibition reaches its midpoint.

Regarding `C=C[C@@H]1C[C@]1(NC(=O)[C@@H]1C[C@@](O)(c2ccc(-c3ccccc3)cc2)CN1C(=O)[C@@H](NC(=O)OC(C)(C)C)C(C)(C)C)C(=O)NS(=O)(=O)C1CC1` [Compound 3], the EC50 was 28 nM in experiment [1] (96 h, HUH-7 replicon cells, 4 days, read-out: EC50 in the replicon FRET assay) and 10 to 1000 nM in experiment [1] (Huh-7, HCV replicon cell assay, read-out: Activity Range (EC50)). Also, on human liver cathepsin B, the IC50 amounted to 2000 nM.

Source of the values: patent publication US7592336B2, “Hepatitis C virus inhibitors” (Bristol-Myers Squibb Company, priority 2005, dated 2009).
